Experimental data: article PMC12679585, “Design, synthesis, and characterization of novel 5-ethylsulfonyl-indazole-3-carboxamides as dual VEGFR-2 and EGFR inhibitors: apoptotic antiproliferative and immunomodulatory evaluations” (RSC Advances, 2025)
“And” between values parts separate entries of the source, which are not always exact repeats. Identical values can stand only once.

Tests used:
[1] = tested on: Caspase-9; assay: Caspase-9 activation assay in HCT-116 cells; settings: for Caspase-9 fold change: relative to control
[2] = tested on: Caspase-3; assay: Caspase-3 activation assay in HCT-116 cells; assay type: cell-based, human; settings: for Caspase-3 fold change: relative to control
Experimental: Appendix A gives more details.
Additionally, activating caspases is essential for both initiating and terminating the apoptotic process.[64] Caspase-3 is an essential enzyme that cleaves several proteins within cells, leading to apoptotic cell death.[65] […]
be read immediately after the Stop Solution is added or within one hour if the microwell strips are stored at 2 - 8°C in the dark. Read the absorbance of each microwell on a spectrophotometer using 450 nm as the primary wavelength.
4.2.5. Caspase-3 activation assay
Allow all reagents to reach room temperature before use. Gently mix all liquid reagents prior to use. Determine the number of 8-well strips needed for the assay. Insert these in the frame(s) for current use. Add 100 μl of the Standard Diluent Buffer to the zero standard wells. Well(s) reserved for chromogen blank should be left empty. Add 100 μl of standards and controls or diluted samples to the appropriate microtiter wells. The sample dilution chosen should be optimized for each experimental system. Tap gently on side of plate to mix. Cover wells with plate cover and incubate for 2 hours at room temperature. Thoroughly aspirate or decant solution from wells and discard the liquid, Wash wells 4 times. Pipette 100 μl of Caspase-3 (Active) Detection Antibody solution into each well except the chromogen blank(s). Tap gently on the side of the plate to mix. Cover plate with plate cover and incubate for 1 hour at room temperature.
Thoroughly aspirate or decant solution from wells and discard the liquid, Wash wells 4 times. Add 100 μl Anti-Rabbit IgG HRP Working Solution to each well except the chromogen blank(s). Prepare the working dilution as described in Preparing IgG HRP.
Cover wells with the plate cover and incubate for 30 minutes at room temperature.
Thoroughly aspirate or decant solution from wells and discard the liquid. Wash wells 4 times. Add 100 μl of Stabilized Chromogen to each well. The liquid in the wells will […]
begin to turn blue. […] The
Tap side of plate gently to mix.
Use a curve fitting software to generate […]
for the dilution in step 3.
4.2.6. Caspase-8/9 activation assay
This lysate was diluted in […]

[3] = Cell viability assay (MTT) on normal mammary epithelial cells; assay type: cell-based; settings: human, MCF-10A normal mammary gland epithelial cells, four days
Experimental: This test assesses the safety of new compounds 8a–l on normal cell lines. The efficacy of 8a–l was tested on the normal human mammary gland epithelial cell line MCF-10A. MCF-10A cells were incubated with 50 µM of each tested compound for four days. Cell viability was assessed using the MTT assay.[11,48] Appendix A has extra experimental details.
This assay evaluates the impact of novel compounds 8a–l on normal cell lines to determine their safety, an essential consideration in drug discovery. The efficacy of the examined compounds was evaluated utilizing the normal human mammary gland epithelial cell line MCF-10A. […]
4.2. Biological evaluation
4.2.1 Cell Viability assay (MTT assay)
(§1) MTT assay was performed to investigate the effect of the synthesized compounds on mammary epithelial cells (MCF-10A). The cells were propagated in medium consisting of Ham's F-12 medium/ Dulbecco's modified Eagle's medium (DMEM) (1:1) supplemented with 10% foetal calf serum (GIBCO, UK), 2 mM glutamine, insulin (10 μg/mL), hydrocortisone (500 ng/mL) and epidermal growth factor (20 ng/mL). Trypsin ethylenediamine tetra acetic acid (EDTA) was used to passage the cells after every 2-3 days. 96-well flat-bottomed cell culture plates were used to seed the cells at a density of 10^4 cells mL-1. The medium was aspirated from all the wells of culture plates after 24 h followed by the addition of synthesized compounds (in 200 μL medium to yield a final concentration of 0.1% (v/v) dimethyl sulfoxide) into individual wells of the plates.
(§2) Four wells were designated to a single compound. The plates were allowed to incubate at 37°C for 96 h. Afterwards, the medium was aspirated and 3-[4,5-dimethylthiazol-2-yl]-2,5-diphenyltetrazolium bromide (MTT) (0.4 mg/mL) in medium was added to each well and subsequently incubated for 3 h. The medium was aspirated and 150 μL dimethyl sulfoxide (DMSO) was added to each well. The plates were vortexed followed by the measurement of absorbance at 540 nm on a microplate reader. […]

[4] = tested on: TNF-α; assay: TNF-α level by qRT-PCR in HCT-116 cells; settings: for TNF-α (% inhibition): HCT-116 cells, 24 hours, at IC50 against HCT-116 (8g 24 nM, 8h 23 nM), qRT-PCR
Experimental: (§8) The reference molecule was dexamethasone, a drug that uniformly regulates the immune system.
TNF-α and IL6 a determination
(§9) determined using of q RT-PCR technique. By using q RTPCR (reference), the amount
(§10) treated HCT-116 cells was measured (at the IC50 concentrations). Total RNA was
(§11) accordance with the manufacturer's instructions (RNeasy mini kit, Qiagen, Germany).
(§12) Following RNA extraction, the Revert Aid First Strand cDNA Synthesis kit (Thermo
(§13) Scientific, USA) was used to create cDNA. The Rotor-Gene Q real-time PCR thermal
(§14) cycler was used to amplify target cDNA for apoptosis markers and GAPDH [as a
(§15) normalization (housekeeping) gene] using one step RT-PCR SYBR® Green kit Master
(§16) Mix (Bio-Rad Laboratories, USA). Two microliters of cDNA were combined with one
(§17) microliter of forward primer, one microliter of reverse primer, ten microliters of master
(§18) mixture, and twenty microliters of nuclease-free water to complete the reaction volume.
(§19) Every experiment was carried out three times.
(§20) Quantitative Real Time Reverse-Transcriptase PCR (qRT-PCR) primer sequences
TNF-α : R 5'- [sequence] -3'.
IL6 : R 5'- [sequence] -3
GAPDH : R 5’- [sequence]-3’

[5] = tested on: IL-6; assay: IL-6 level by qRT-PCR in HCT-116 cells; settings: Homo sapiens, HCT-116, read-out: IL-6 (% inhibition)
Experimental: as §8
TNF-α and IL6 a determination
as §9, §10, §11, §12, §13, §14, §15, §16, §17, §18, §19, §20
TNF-α : R 5'- [sequence] -3'.
IL6 : R 5'- [sequence] -3
GAPDH : R 5’- [sequence]-3’

[6] = tested on: Bax; assay: Apoptotic markers assay: Bax level in HCT-116 cells; assay type: cell-based, human; settings: for Bax fold change: relative to untreated control
[7] = tested on: HCT-116; assay: Antiproliferative assay (MTT); assay type: cell-based; settings: Homo sapiens, HCT-116 colorectal, mean of three experiments ± SD
Source text: (§3) The MTT assay[53,54] was employed to evaluate the antiproliferative efficacy of new compounds 8a–l against two human cancer cell lines: MCF-7 (breast) and HCT-116 (colorectal carcinoma). Erlotinib was employed as the benchmark. Check Appendix A for additional experimental information.
(§4) The MTT assay[53,54] was used to evaluate the antiproliferative properties of novel compounds 8a–l against two human cancer cell lines: MCF-7 (breast cancer) and HCT-116 (colorectal carcinoma). Erlotinib was utilized as the reference. […] The provided values represent the means of three experiments ± standard deviation (SD). […]
as §1, with “of” for “MTT assay was performed to investigate the effect of the synthesized compounds on mammary epithelial cells (MCF-10A). The cells were propagated in medium consisting of”
as §2
(§5) All cell lines […]
(§6) were obtained from ATCC (American Type Cell Culture). […]
(§7) μM), benzamidine HCl (16 μg/mL), NaCl (10 mM),leupeptin (10 μg/mL) and pepstatin (10 μg/mL) at 0°C for 20 min at pH 7.4, followed by centrifugation for 20 min. To eliminate the nonspecifically bound material, a Ni-NTA super flow packed column was (1 picture or pasted object on this page, not shown here)

[8] = tested on: MCF-7; assay: Antiproliferative assay (MTT); assay type: cell-based; settings: Homo sapiens, MCF7, MCF-7 breast, mean of three experiments ± SD
Source text: as §3, §4
as §1, with “of” for “MTT assay was performed to investigate the effect of the synthesized compounds on mammary epithelial cells (MCF-10A). The cells were propagated in medium consisting of”
as §2, §5, §6, §7

[9] = Homo sapiens, HCT-116, read-out: TNF-α (% inhibition), HCT-116 cells, 24 hours, at IC50 against HCT-116 (8g 24 nM, 8h 23 nM), qRT-PCR

Row | IC50 [7] | IC50 [8] | Structure (SMILES) | Caspase-9 Conc. [1] | Caspase-9 fold change [1] | Caspase-3 Conc. [2] | Caspase-3 fold change [2] | viability at 4 days, 50 µM [3] | TNF-α (% inhibition) [4] | inhibition at 0.024 µM [4, 9] | inhibition at 0.024 µM [5] | Bax level [6] | Bax fold change [6] | inhibition at 0.023 µM [4, 9] | inhibition at 0.023 µM [5]
1 | 0.024 ± 0.001 µM | 0.028 ± 0.001 µM | CCS(=O)(=O)c1ccc2[nH]nc(C(=O)NNC(=O)NC34CC5CC(CC(C5)C3)C4)c2c1 [Compound 8g, 2-(5-(Ethylsulfonyl)-1H-indazole-3-carbonyl)-N-(adamantan-1-yl)hydrazine-1-carboxamide] | 21 ± 3 ng/mL | 21 fold | 490 ± 3 pg/mL and 490 ± 5 pg/mL | 7.50 fold | 91% | 79% | ~80% | 86% | 490 ± 2 pg/mL | 8.20 fold | – | –
2 | 0.023 ± 0.001 µM | 0.025 ± 0.001 µM | CCS(=O)(=O)c1ccc2[nH]nc(C(=O)NNC(=O)NC3CCCCCC3)c2c1 [Compound 8h, 2-(5-(Ethylsulfonyl)-1H-indazole-3-carbonyl)-N-(cycloheptyl)hydrazine-1-carboxamide] | 23 ± 1 ng/mL | 23 fold | 510 ± 4 pg/mL and 510 ± 5 pg/mL | 7.90 fold | 90% | 82% | – | – | 510 ± 3 pg/mL | 8.50 fold | ~80% | 91%
